Laboratory results taken from ChEMBL document CHEMBL1122099, “Antiallergics: 3-(1H-tetrazol-5-yl)-4H-pyrimido[2,1-b]benzothiazol-4-ones” (1982).

Tests used:
Rattus norvegicus [1] = assay: Tested for the antiallergic activity in rat passive cutaneous anaphylaxis (PCA) test; po; type: functional
Rattus norvegicus [2] = assay: Percent inhibition at a concentration of 25 mg/kg in rat passive cutaneous anaphylaxis (PCA) test; type: functional
Rattus norvegicus [3] = species: Rattus norvegicus; assay: Tested for the bronchodilator activity by measuring inhibition of allergen induced bronchospasm in rat intra duodenally
Rattus norvegicus [4] = assay: Percent inhibition at a concentration of 0.1 mg/kg in methacholine induced bronchospasm in rat; type: functional
Rattus norvegicus [5] = assay: Percent inhibition at a concentration of 1.0 mg/kg in methacholine induced bronchospasm in rat; type: functional
Rattus norvegicus [6] = assay: Percent inhibition at a concentration of 0.02 mg/kg in methacholine induced bronchospasm in rat intraduodenally; type: functional; conditions: route intraduodenal
Rattus norvegicus [7] = assay: Percent inhibition at a concentration of 10.0 mg/kg in methacholine induced bronchospasm in rat; type: functional

**Q.** Which ED50 (Rattus norvegicus [1]) does the source give for `N=c1c(-c2nnn[nH]2)cnc2sc3ccccc3n12` here?
**A.** Its ED50 is 8.1 mg/kg.

**Q.** For `Cc1cc(C)c2sc3ncc(-c4nnn[nH]4)c(=O)n3c2c1`, which ED50 (Rattus norvegicus [1]) is on record?
**A.** Its ED50 is 1.96 mg/kg.

**Q.** How did the inhibition in vivo at 25 mg/kg (Rattus norvegicus [2]) turn out when `Cc1cc2sc3ncc(-c4nnn[nH]4)c(=O)n3c2cc1C` was run?
**A.** The inhibition in vivo at 25 mg/kg was 35%.

**Q.** Which ED50 (Rattus norvegicus [3]) does the source give for `O=c1c(-c2nnn[n-]2)cnc2sc3ccccc3n12.[K+]` here?
**A.** The ED50 was 0.38 mg/kg.

**Q.** And the inhibition in vivo at 0.1 mg/kg (Rattus norvegicus [4])?
**A.** Its inhibition in vivo at 0.1 mg/kg is 37.4%.

**Q.** What about the inhibition in vivo at 1 mg/kg (Rattus norvegicus [5]) of the same compound?
**A.** The inhibition in vivo at 1 mg/kg was 59.3%.

**Q.** And the inhibition in vivo at 0.02 mg/kg (Rattus norvegicus [6])?
**A.** The inhibition in vivo at 0.02 mg/kg was 13.2%.

**Q.** What about the inhibition in vivo at 10 mg/kg (Rattus norvegicus [7]) of the same compound?
**A.** Its inhibition in vivo at 10 mg/kg is 61%.

**Q.** And the ED50 (Rattus norvegicus [1])?
**A.** Its ED50 is 0.08 mg/kg.

**Q.** Which ED50 (Rattus norvegicus [1]) does the source give for `COc1ccc2c(c1)sc1ncc(-c3nnn[nH]3)c(=O)n12` here?
**A.** The ED50 was 1.9 mg/kg.

**Q.** How did the ED50 (Rattus norvegicus [1]) turn out when `O=C([O-])c1cc(=O)c2c(OCC(O)COc3cccc4oc(C(=O)[O-])cc(=O)c34)cccc2o1.[Na+].[Na+]` [CROMOLYN SODIUM] was run?
**A.** Its ED50 is 0.3 mg/kg.
